Assay results reported in patent US10253007B2, “Taxanes compounds, preparation method therefor, and uses thereof” (Jiangsu Tasly Diyi Pharmaceutical Co., Ltd., priority 2013, dated 2019).

Legend:
[1] = Caco-2 cell monolayer membrane transport assay; details: human, A-B; for Papp A→B: Caco-2, Papp A-B; for recovery: Caco-2, Recovery rate in mass
Text: Caco-2 Cell Monolayer Membrane Transport Assay
Human-derived colorectal adenocarcinoma cell line Caco-2 cell monolayer model was used to study the bidirectional transport of the target compounds from the apical (AP) side to the basolateral (BL) side and from BL side to AP side. HPLC was used for quantitative analysis to calculate transport parameters, apparent permeability coefficient (Papp) and the efflux ratio.

K562 leukemia = experiment: MTT assay, proliferation inhibition; format: cell-based; details: Homo sapiens, read-out: Proliferation inhibition rate
Text: (§1) 1. Cytotoxicity Assay Using Human Tumor Cell Lines
(§2) Paclitaxel was used as the positive drug.

[2] = MTT assay, proliferation inhibition; format: cell-based; details: Homo sapiens, LN-18 gastric cancer, read-out: Proliferation inhibition rate
Text: as §1, §2

[3] = test system: A549 non-small cell lung cancer; experiment: MTT assay, proliferation inhibition; format: cell-based; details: Homo sapiens, read-out: Proliferation inhibition rate
Text: as §1, §2

LNCaP prostate cancer = experiment: MTT assay, proliferation inhibition; format: cell-based; details: Homo sapiens, read-out: Proliferation inhibition rate
Text: as §1, §2

HL60 leukemia = experiment: MTT assay, proliferation inhibition; format: cell-based; details: Homo sapiens, HL-60, read-out: Proliferation inhibition rate
Text: as §1, §2

A2780 ovarian cancer = experiment: MTT assay, proliferation inhibition; format: cell-based; details: Homo sapiens, read-out: Proliferation inhibition rate
Text: as §1, §2

BGC-823 gastric cancer = experiment: MTT assay, proliferation inhibition; format: cell-based; details: Homo sapiens, read-out: Proliferation inhibition rate
Text: as §1, §2

HeLa cervical cancer = experiment: MTT assay, proliferation inhibition; format: cell-based; details: Homo sapiens, read-out: Proliferation inhibition rate
Text: as §1, §2

MCF-7 breast cancer = experiment: MTT assay, proliferation inhibition; format: cell-based; details: Homo sapiens, MCF7, read-out: Proliferation inhibition rate
Text: as §1, §2

DU145 prostate cancer = experiment: MTT assay, proliferation inhibition; format: cell-based; details: Homo sapiens, DU-145, read-out: Proliferation inhibition rate
Text: as §1, §2

MDA-MB-436 breast cancer = experiment: MTT assay, proliferation inhibition; format: cell-based; details: Homo sapiens, read-out: Proliferation inhibition rate
Text: as §1, §2

B16 melanoma = experiment: MTT assay, proliferation inhibition; format: cell-based; details: read-out: Proliferation inhibition rate
Text: as §1, §2

HT29 colon cancer = experiment: MTT assay, proliferation inhibition; format: cell-based; details: Homo sapiens, HT-29, read-out: Proliferation inhibition rate
Text: as §1, §2

[4] = test system: NCI-H460 non-small cell lung cancer; experiment: MTT assay, proliferation inhibition; format: cell-based; details: Homo sapiens, read-out: Proliferation inhibition rate
Text: as §1, §2

A375 melanoma = experiment: MTT assay, proliferation inhibition; format: cell-based; details: Homo sapiens, A-375, read-out: Proliferation inhibition rate
Text: as §1, §2

HCT 116 colon cancer = experiment: MTT assay, proliferation inhibition; format: cell-based; details: Homo sapiens, read-out: Proliferation inhibition rate
Text: as §1, §2

[5] = Mean, Caco-2, mean of two samples

Compound	Papp A→B ([1]; Sample-01, Caco-2, Sample-01) [×10⁻⁶ cm/s]	Papp A→B ([1]; Sample-02, Caco-2, Sample-02) [×10⁻⁶ cm/s]	recovery [1, 5] [%]	recovery ([1]; Sample-01, Caco-2, Sample-01) [%]	recovery ([1]; Sample-02, Caco-2, Sample-02) [%]	inhibition at 1 µM (K562 leukemia) [%]	inhibition at 1 µM [2] [%]	inhibition at 1 µM [3] [%]	inhibition at 1 µM (LNCaP prostate cancer) [%]	inhibition at 1 µM (HL60 leukemia) [%]	inhibition at 1 µM (A2780 ovarian cancer) [%]	inhibition at 1 µM (BGC-823 gastric cancer) [%]	inhibition at 1 µM (HeLa cervical cancer) [%]	inhibition at 1 µM (MCF-7 breast cancer) [%]	inhibition at 1 µM (DU145 prostate cancer) [%]	inhibition at 1 µM (MDA-MB-436 breast cancer) [%]	inhibition at 1 µM (B16 melanoma) [%]	inhibition at 1 µM (HT29 colon cancer) [%]	inhibition at 1 µM [4] [%]	inhibition at 1 µM (A375 melanoma) [%]	also measured
CO[C@H]1C[C@H]2OC[C@@]2(OC(C)=O)[C@H]2[C@H](OC(=O)c3ccccc3)[C@]3(O)C[C@H](OC(=O)[C@H](O)[C@@H](NC(=O)c4ccccc4)c4ccccc4)C(C)=C([C@@H](OC(=O)N(C)C)C(=O)[C@]12C)C3(C)C [PCMI-23]	3.21	2.68	87.1	100	74	93.8	96.3	77.8	81.8	97.2	94.8	94.5	99.8	93.5	84.8	84.8	80.8	87.9	83.3	87.7	inhibition at 1 µM (HCT 116 colon cancer): 78.3%
CO[C@H]1C[C@H]2OC[C@@]2(OC(C)=O)[C@H]2[C@H](OC(=O)c3ccccc3)[C@]3(O)C[C@H](OC(=O)[C@H](O)[C@@H](NC(=O)OC(C)(C)C)c4ccccn4)C(C)=C([C@@H](OC(=O)N(C)C)C(=O)[C@]12C)C3(C)C [PCMI-24]	2.93	3.1	100	106	94.8	92.2	94	73.8	81.1	98.1	95.5	93.5	100	82.3	84.7	76.3	78.9	88.1	83.6	86.8	inhibition at 1 µM (HCT 116 colon cancer): 81.1%
COC(=O)O[C@H]1C(=O)[C@]2(C)[C@@H](OC)C[C@H]3OC[C@@]3(OC(C)=O)[C@H]2[C@H](OC(=O)c2ccccc2)[C@]2(O)C[C@H](OC(=O)[C@H](O)[C@@H](NC(=O)c3ccccc3)c3ccccc3)C(C)=C1C2(C)C [PCMI-27]	4.44	4.31	95.6	99.3	91.9	94.5	96.3	74.8	82.6	97.4	94.1	94.1	99.5	95.3	83.3	83.3	79.2	87.3	80.4	103	inhibition at 1 µM (HCT 116 colon cancer): 78.3%
COC(=O)O[C@H]1C(=O)[C@]2(C)[C@@H](OC)C[C@H]3OC[C@@]3(OC(C)=O)[C@H]2[C@H](OC(=O)c2ccccc2)[C@]2(O)C[C@H](OC(=O)[C@H](O)[C@@H](NC(=O)N(C)C)c3ccccc3)C(C)=C1C2(C)C [PCMI-29]	9.53	7.33	99.4	102	97	90.8	97.7	78.1	84.3	96.8	92.5	90.8	97.3	91.3	86.7	75.7	80.6	81.7	85.2	92.8	Papp A→B [1, 5]: 8.43 ×10⁻⁶ cm/s; inhibition at 1 µM (HCT 116 colon cancer): 68.7%
CCSC(=O)O[C@H]1C(=O)[C@]2(C)[C@@H](OC)C[C@H]3OC[C@@]3(OC(C)=O)[C@H]2[C@H](OC(=O)c2ccccc2)[C@]2(O)C[C@H](OC(=O)[C@H](O)[C@@H](NC(=O)OC(C)(C)C)c3ccccc3)C(C)=C1C2(C)C [PCMI-30]	5.78	3.59	76.5	70.4	82.6	92.6	95	75.8	86.2	98.5	95.6	94.9	101	95.8	90.3	81.3	81.7	87.8	85.8	96.9	Papp A→B [1, 5]: 4.68 ×10⁻⁶ cm/s; inhibition at 1 µM (HCT 116 colon cancer): 65.5%
COC(=O)O[C@H]1C[C@H]2OC[C@@]2(OC(C)=O)[C@H]2[C@H](OC(=O)c3ccccc3)[C@]3(O)C[C@H](OC(=O)[C@H](O)[C@@H](NC(=O)c4ccccc4)c4ccccc4)C(C)=C([C@@H](OC)C(=O)[C@]12C)C3(C)C [PCMI-37]	3.23	3.41	80.6	81.2	80	94.5	98.3	80	85.5	97	96.4	95.7	102	103	88.5	86.1	85.3	89.7	89.5	97.4	inhibition at 1 µM (HCT 116 colon cancer): 67.4%
COC(=O)O[C@H]1C[C@H]2OC[C@@]2(OC(C)=O)[C@H]2[C@H](OC(=O)c3ccccc3)[C@]3(O)C[C@H](OC(=O)[C@H](O)[C@@H](NC(=O)OC(C)(C)C)c4ccccn4)C(C)=C([C@@H](OC)C(=O)[C@]12C)C3(C)C [PCMI-38]	4.71	4.35	121	122	120	94.7	96.6	80.3	82.4	97.4	96.5	95.7	102	106	89.2	85.9	83.3	89.8	88.7	88.3	inhibition at 1 µM (HCT 116 colon cancer): 64%
